What was measured:
Format in all cases: functional
SNB-19 = experiment: Growth inhibition of human SNB19 cells at 10^-5 M incubated for 48 hrs by sulforhodamine B assay; conditions: SNB-19, 48 h, read-out: GI
IGROV-1 = experiment: Growth inhibition of human IGROV1 cells at 10^-5 M incubated for 48 hrs by sulforhodamine B assay; conditions: IGROV-1, 48 h, read-out: GI
SF-539 = experiment: Growth inhibition of human SF539 cells at 10^-5 M incubated for 48 hrs by sulforhodamine B assay; conditions: SF-539, 48 h, read-out: GI
CCRF-CEM = experiment: Growth inhibition of human CCRF-CEM cells at 10^-5 M incubated for 48 hrs by sulforhodamine B assay; conditions: read-out: GI
SK-MEL-2 = experiment: Growth inhibition of human SK-MEL-2 cells at 10^-5 M incubated for 48 hrs by sulforhodamine B assay; conditions: SK-MEL-2, 48 h, read-out: GI
OVCAR-3 = experiment: Growth inhibition of human OVCAR3 cells at 10^-5 M incubated for 48 hrs by sulforhodamine B assay; conditions: OVCAR-3, 48 h, read-out: GI
SK-OV-3 = experiment: Growth inhibition of human SKOV3 cells at 10^-5 M incubated for 48 hrs by sulforhodamine B assay; conditions: SK-OV-3, 48 h, read-out: GI
ACHN = experiment: Growth inhibition of human ACHN cells at 10^-5 M incubated for 48 hrs by sulforhodamine B assay; conditions: read-out: GI
SF-268 = experiment: Growth inhibition of human SF268 cells at 10^-5 M incubated for 48 hrs by sulforhodamine B assay; conditions: SF-268, 48 h, read-out: GI
HCT-116 = experiment: Growth inhibition of human HCT116 cells at 10^-5 M incubated for 48 hrs by sulforhodamine B assay; conditions: HCT-116, 48 h, read-out: GI
OVCAR-4 = experiment: Growth inhibition of human OVCAR4 cells at 10^-5 M incubated for 48 hrs by sulforhodamine B assay; conditions: OVCAR-4, 48 h, read-out: GI
SF-295 = experiment: Growth inhibition of human SF295 cells at 10^-5 M incubated for 48 hrs by sulforhodamine B assay; conditions: SF-295, 48 h, read-out: GI
NCI/ADR-RES = experiment: Growth inhibition of human NCI/ADR-RES cells at 10^-5 M incubated for 48 hrs by sulforhodamine B assay; conditions: read-out: GI
Malme-3M = experiment: Growth inhibition of human MALME-3M cells at 10^-5 M incubated for 48 hrs by sulforhodamine B assay; conditions: read-out: GI
HOP-92 = experiment: Growth inhibition of human HOP92 cells at 10^-5 M incubated for 48 hrs by sulforhodamine B assay; conditions: HOP-92, 48 h, read-out: GI
NCI-H460 = experiment: Growth inhibition of human NCI-H460 cells at 10^-5 M incubated for 48 hrs by sulforhodamine B assay; conditions: NCI-H460, 48 h, read-out: GI
HCT-15 = experiment: Growth inhibition of human HCT15 cells at 10^-5 M incubated for 48 hrs by sulforhodamine B assay; conditions: HCT-15, 48 h, read-out: GI
SK-MEL-5 = experiment: Growth inhibition of human SK-MEL-5 cells at 10^-5 M incubated for 48 hrs by sulforhodamine B assay; conditions: SK-MEL-5, 48 h, read-out: GI
OVCAR-8 = experiment: Growth inhibition of human OVCAR8 cells at 10^-5 M incubated for 48 hrs by sulforhodamine B assay; conditions: OVCAR-8, 48 h, read-out: GI
EKVX = experiment: Growth inhibition of human EKVX cells at 10^-5 M incubated for 48 hrs by sulforhodamine B assay; conditions: read-out: GI
T47D = experiment: Growth inhibition of human T47D cells at 10^-5 M incubated for 48 hrs by sulforhodamine B assay; conditions: read-out: GI
NCI-H23 = experiment: Growth inhibition of human NCI-H23 cells at 10^-5 M incubated for 48 hrs by sulforhodamine B assay; conditions: NCI-H23, 48 h, read-out: GI
NCI-H522 = experiment: Growth inhibition of human NCI-H522 cells at 10^-5 M incubated for 48 hrs by sulforhodamine B assay; conditions: NCI-H522, 48 h, read-out: GI
KM12 = experiment: Growth inhibition of human KM12 cells at 10^-5 M incubated for 48 hrs by sulforhodamine B assay; conditions: KM12, 48 h, read-out: GI
K562 = experiment: Growth inhibition of human K562 cells at 10^-5 M incubated for 48 hrs by sulforhodamine B assay; conditions: K562, 48 h, read-out: GI
COLO 205 = experiment: Growth inhibition of human COLO205 cells at 10^-5 M incubated for 48 hrs by sulforhodamine B assay; conditions: COLO 205, 48 h, read-out: GI
SW-620 = experiment: Growth inhibition of human SW620 cells at 10^-5 M incubated for 48 hrs by sulforhodamine B assay; conditions: SW-620, 48 h, read-out: GI
PC-3 = experiment: Growth inhibition of human PC3 cells at 10^-5 M incubated for 48 hrs by sulforhodamine B assay; conditions: PC-3, 48 h, read-out: GI
U-251 = experiment: Growth inhibition of human U251 cells at 10^-5 M incubated for 48 hrs by sulforhodamine B assay; conditions: U-251, 48 h, read-out: GI
NCI-H322M = experiment: Growth inhibition of human NCI-H322M cells at 10^-5 M incubated for 48 hrs by sulforhodamine B assay; conditions: read-out: GI
SN12C = experiment: Growth inhibition of human SN12C cells at 10^-5 M incubated for 48 hrs by sulforhodamine B assay; conditions: read-out: GI
LOX IMVI = experiment: Growth inhibition of human LOXIMVI cells at 10^-5 M incubated for 48 hrs by sulforhodamine B assay; conditions: read-out: GI
SNB-75 = experiment: Growth inhibition of human SNB75 cells at 10^-5 M incubated for 48 hrs by sulforhodamine B assay; conditions: SNB-75, 48 h, read-out: GI
M14 = experiment: Growth inhibition of human M14 cells at 10^-5 M incubated for 48 hrs by sulforhodamine B assay; conditions: M14, 48 h, read-out: GI
A549 = experiment: Growth inhibition of human A549/ATCC cells at 10^-5 M incubated for 48 hrs by sulforhodamine B assay; conditions: A549, 48 h, read-out: GI
MDA-MB-435 = experiment: Growth inhibition of human MDA-MB-435 cells at 10^-5 M incubated for 48 hrs by sulforhodamine B assay; conditions: MDA-MB-435, 48 h, read-out: GI
TK-10 = experiment: Growth inhibition of human TK10 cells at 10^-5 M incubated for 48 hrs by sulforhodamine B assay; conditions: TK-10, 48 h, read-out: GI
A498 = experiment: Growth inhibition of human A498 cells at 10^-5 M incubated for 48 hrs by sulforhodamine B assay; conditions: A498, 48 h, read-out: GI
Hs-578T = experiment: Growth inhibition of human Hs 578T cells at 10^-5 M incubated for 48 hrs by sulforhodamine B assay; conditions: read-out: GI

| SMILES | inhibition of growth at 10 µM (SNB-19) [%] | inhibition of growth at 10 µM (IGROV-1) [%] | inhibition of growth at 10 µM (SF-539) [%] | inhibition of growth at 10 µM (CCRF-CEM) [%] | inhibition of growth at 10 µM (SK-MEL-2) [%] | inhibition of growth at 10 µM (OVCAR-3) [%] | inhibition of growth at 10 µM (SK-OV-3) [%] | inhibition of growth at 10 µM (ACHN) [%] | inhibition of growth at 10 µM (SF-268) [%] | inhibition of growth at 10 µM (HCT-116) [%] | inhibition of growth at 10 µM (OVCAR-4) [%] | inhibition of growth at 10 µM (SF-295) [%] | inhibition of growth at 10 µM (NCI/ADR-RES) [%] | inhibition of growth at 10 µM (Malme-3M) [%] | inhibition of growth at 10 µM (HOP-92) [%] | inhibition of growth at 10 µM (NCI-H460) [%] | inhibition of growth at 10 µM (HCT-15) [%] | inhibition of growth at 10 µM (SK-MEL-5) [%] | inhibition of growth at 10 µM (OVCAR-8) [%] | inhibition of growth at 10 µM (EKVX) [%] | other results |
| --- | --- | --- | --- | --- | --- | --- | --- | --- | --- | --- | --- | --- | --- | --- | --- | --- | --- | --- | --- | --- | --- |
| O=C1/C(=C\c2cccc(Br)c2)Sc2ccc(Cl)cc21 | -6.33 | -2.64 | -3.89 | -14.5 | -5.68 | -12.1 | 5.77 | 3.66 | 2.33 | 0.42 | -9.77 | -0.53 | -2.33 | -1.08 | -15.1 | -7.98 | -10.9 | 1.63 | -3.52 | -0.43 | inhibition of growth at 10 µM (T47D): 1.47%; inhibition of growth at 10 µM (NCI-H23): 8.26%; inhibition of growth at 10 µM (NCI-H522): 5.63%; inhibition of growth at 10 µM (KM12): -0.19%; inhibition of growth at 10 µM (K562): -7.99%; inhibition of growth at 10 µM (COLO 205): -6.12%; inhibition of growth at 10 µM (SW-620): -1.25%; inhibition of growth at 10 µM (PC-3): -1.54%; inhibition of growth at 10 µM (U-251): -3.45%; inhibition of growth at 10 µM (NCI-H322M): 9.44%; inhibition of growth at 10 µM (SN12C): -0.02%; inhibition of growth at 10 µM (LOX IMVI): 2.63%; inhibition of growth at 10 µM (SNB-75): 2.14%; inhibition of growth at 10 µM (M14): -1.09%; inhibition of growth at 10 µM (A549): 2.51%; inhibition of growth at 10 µM (MDA-MB-435): -14%; inhibition of growth at 10 µM (TK-10): -29.1%; inhibition of growth at 10 µM (A498): 13.5%; inhibition of growth at 10 µM (Hs-578T): -8.14% |
| NNC1=Nc2c(sc3ccc(Cl)cc23)C(c2cccc([N+](=O)[O-])c2)N1 (stereo not drawn) | -1.03 | 23.8 | -1.12 | -19.8 | -8.15 | -1.38 | 5.88 | 6.37 | 1.93 | -0.35 | 1.81 | -3.08 | -3.64 | -5 | -12.8 | 1.16 | -5.02 | 3.86 | -1.52 | 16.9 | inhibition of growth at 10 µM (T47D): 12.8%; inhibition of growth at 10 µM (NCI-H23): 9.49%; inhibition of growth at 10 µM (NCI-H522): 7.13%; inhibition of growth at 10 µM (KM12): 1.7%; inhibition of growth at 10 µM (K562): 13.3%; inhibition of growth at 10 µM (COLO 205): -1.26%; inhibition of growth at 10 µM (SW-620): -6.43%; inhibition of growth at 10 µM (PC-3): 15.2%; inhibition of growth at 10 µM (U-251): -3.56%; inhibition of growth at 10 µM (NCI-H322M): 4.45%; inhibition of growth at 10 µM (SN12C): 1.02%; inhibition of growth at 10 µM (LOX IMVI): 2.22%; inhibition of growth at 10 µM (SNB-75): 10.7%; inhibition of growth at 10 µM (M14): -4.43%; inhibition of growth at 10 µM (A549): -4.45%; inhibition of growth at 10 µM (MDA-MB-435): -7.56%; inhibition of growth at 10 µM (TK-10): -18.2%; inhibition of growth at 10 µM (A498): -27.2%; inhibition of growth at 10 µM (Hs-578T): -2.75% |

Reference: ChEMBL document CHEMBL4414672, “Synthesis of certain benzothieno[3,2-d]pyrimidine derivatives as a selective SIRT2 inhibitors” (Eur J Med Chem, 2020)
